In one assay the target is P. aeruginosa PqsA (Pseudomonas aeruginosa, UniProt Q9I4X3). Nature of the assay: PqsA inhibition, spectrophotometric assay with recombinant PqsA (anthranilyl-CoA formation at 365 nm). Type of assay: biochemical. The following applies: for PqsA inhibition, potency in words: short time scale of the assay; for IC50: IC50 for inhibition of P. aeruginosa PqsA; for inhibition at 10 µM: read-out: % inhibition at 10 μM of P. aeruginosa PqsA, 10 μM. The protocol: PqsA inhibitors were evaluated using a quantitative spectrophotometric assay with recombinant PqsA, detecting formation of anthranilyl-CoA at 365 nm. See, e.g., Coleman et al. (2008) J. Bacteriol. 190, 1247. […] See, e.g., Morrison et al. Biochim. Biophys. Acta, Enzymol. 185, 269-286; Williams et al. (1979) Methods Enzymol. 63, 437. […] See, e.g., Qiao et al. (2007) J. Am. Chem. Soc. 129, 6350.
P. aeruginosa PqsA, sequence (Q9I4X3 whole entry): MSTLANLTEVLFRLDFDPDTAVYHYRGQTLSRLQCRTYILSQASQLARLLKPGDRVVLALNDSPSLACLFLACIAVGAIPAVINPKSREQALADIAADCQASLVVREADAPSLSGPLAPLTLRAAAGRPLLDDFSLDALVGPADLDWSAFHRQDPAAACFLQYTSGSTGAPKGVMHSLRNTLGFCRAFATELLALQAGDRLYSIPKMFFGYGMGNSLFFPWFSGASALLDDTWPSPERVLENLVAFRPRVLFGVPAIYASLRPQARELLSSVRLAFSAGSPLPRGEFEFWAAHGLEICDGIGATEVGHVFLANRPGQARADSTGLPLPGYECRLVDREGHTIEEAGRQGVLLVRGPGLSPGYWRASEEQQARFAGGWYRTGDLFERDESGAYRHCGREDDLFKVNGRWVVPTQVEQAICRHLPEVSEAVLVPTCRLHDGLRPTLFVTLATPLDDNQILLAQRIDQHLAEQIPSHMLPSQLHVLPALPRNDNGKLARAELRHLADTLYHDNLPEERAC
Reactions were performed at 37° C. in a 0.5 mL volume in a Varian Cary 100 UV-visible spectrophotometer with Cary WinUV software. Reaction mixtures contained 100 mM HEPES, pH 8.0, 0.2 mM dithiothreitol, 2 mM MgCl2, ˜3.3 μg PqsA protein (˜60 nM final), and depending on which substrate varied, 1 mM ATP (disodium salt), 0.5 mM coenzyme A (tri-lithium salt), 0.5 mM sodium anthranilate, and inhibitor (usually as a DMSO stock solution). Reactions were blanked and preincubated with all components except anthranilate at 37° C. for 1 min, then initiated by addition of anthranilate. Formation of anthraniloyl-CoA was monitored ance at 365 nm (ε=5.5 mM−1 cm−1) for 1 min. Data were analyzed using GraphPad Prism 6 software.

The subject of assay [1] is HHQ and PQS quinolone production in P. aeruginosa strain PA14. Nature of the assay: Inhibition of HHQ and PQS quinolone production in P. aeruginosa strain PA14 (LC-MS/MS). As to conditions: 1.5 mM, HHQ 8 h, PQS 20 h. Type of assay: cell-based, Pseudomonas aeruginosa. The procedure: The production of PQS and HHQ by strain PA14 was performed in triplicate in 14-mL round bottom falcon tubes containing 3-mL cultures in LB medium. Tubes were incubated at 37° C. in an orbital shaker at 225 rpm. Cultures were inoculated with 15-hour culture in LB in order to obtain a starting OD600=0.05, with or without inhibitors added. For PQS and HHQ analysis, a 20 μl aliquot was taken at time points as indicated. Each sample was diluted with 180 μL of methanol containing the internal standard (100 μM of d^4-PQS or d^4-HHQ) and 2% acetic acid. The solution was then vertexed and centrifuged at 13,000 g for 5 minutes, and the supernatant was transferred to a 96-well plates for LC-MS/MS analysis. Bacterial growth was measured by recording OD600 at 20 h to provide the data in FIG. 7A.
Liquid chromatography tandem mass spectrometry (LC-MS/MS) was carried out on an Agilent Technologies 6410 triple quad LC-MS/MS system with autosampler in electrospray ionization (ESI) mode, with an Agilent Zorbax Eclipse XDB-C18 reverse phase column (50×4.6 mm, 5 μm) using a flow rate of 0.5 mL/minute and an isocratic mobile phase of 60% CH3CN in 0.1% aqueous formic acid over 5 minutes. Positive electrospray in MRM mode was employed to quantify PQS and HHQ, using the ion transitions HHQ 244 to 159, d^4-HHQ 248 to 163, PQS 260 to 175, and d^4-PQS 264 to 179; shown in Table E3.
PqsA inhibitors 1-5 were evaluated for their ability to inhibit HHQ and PQS quinolone production in P. aeruginosa strain PA14 (FIG. 6). HHQ and PQS concentrations were determined by LC-MS/MS quantitation relative to deuterated internal standards. 6-Fluoroanthranilate (6FABA), a substrate analogue reported previously to inhibit quinolone production at millimolar concentrations, was used as a positive control. Compounds were initially tested at 1.5 mM concentration, and HHQ and PQS were quantified at 8 and 20 hours, respectively. These time points were selected based on an initial time course study of quinolone production in the absence of inhibitors, with HHQ or PQS production peaking at these respective time points. […] This could be due to differences in cell penetration, stability, and/or target specificity. Finally, because inhibitors of the quinolone quorum sensing pathway should not impact bacterial growth, we confirmed that none of the six inhibitors above inhibited growth over 20 h (FIG. 7A). Encouraged by the ability of anthranilyl-AMS (1) and anthranilyl-AMSN (2) to inhibit HHQ and PQS quinolone production, the activity of these two inhibitors and 6FABA were investigated in greater detail. In untreated controls, HHQ and PQS production peaked at 8 and 20 hours, respectively. Previously reported time course studies have similarly shown that HHQ levels peak at 6-8 hours while PQS levels continue to rise. See, e.g., Deziel et al. (2004) Proc. Natl. Acad. Sci. U.S.A 101, 1339; Kesarwani et al. (2011) PLoS Pathog. 7, e1002192. All three inhibitors were able to decrease quinolone production in a dose- and time-dependent manner (FIG. 2A). […] Such a perturbation might still be sufficient to impact P. aeruginosa virulence in vivo. […] See, e.g., Lesic et al. (2007) PLoS Pathog. 3, e126.

The values that follow come from patent US10874686B2, “Anthranilyl-adenosinemonosulfamate analogs and uses thereof” (Memorial Sloan-Kettering Cancer Center, priority 2015, dated 2020).

Usually IC50 stands for the midpoint of a concentration-inhibition curve. What is called inhibition is the relative decrease from the control value, in per cent. What is called % inhibition is the change of the read-out against control, counted positive when it falls.

Take `Nc1ccccc1/C=C/S(=O)(=O)NC[C@H]1O[C@@H](n2cnc3c(N)ncnc32)[C@H](O)[C@@H]1O` [compound 6, Anthranilyl-AVSN]: the “PqsA inhibition, potency in words” value on P. aeruginosa PqsA was “not as effective”. On to `Nc1ncnc2c1ncn2[C@@H]1O[C@H](COS(=O)(=O)NC(=O)c2ccccc2)[C@@H](O)[C@H]1O` [Benzoyl-AMS, reference compound], for which the “inhibition of quinolone production, in words” value in assay [1] is given as “less potent inhibitors of quinolone production”. Besides, the “PqsA inhibition, potency in words” value on P. aeruginosa PqsA is listed as “somewhat weaker inhibitor”. Turning to `Nc1ccc(Cl)cc1C(=O)NS(=O)(=O)OC[C@H]1O[C@@H](n2cnc3c(N)ncnc32)[C@H](O)[C@@H]1O` [DST-Pqs15], at P. aeruginosa PqsA, the IC50 was 1.53 µM and the inhibition at 10 µM came to 97.3 ± 0.9%. Regarding `Nc1ncnc2c1ncn2[C@@H]1O[C@H](CNS(=O)(=O)/C=C/c2ccccc2O)[C@@H](O)[C@H]1O` [compound 7, Salicyl-AVSN, reference compound], at P. aeruginosa PqsA, the “PqsA inhibition, potency in words” value is recorded as “not as effective”. With `Nc1ccccc1C(=O)NS(=O)(=O)OC[C@H]1O[C@@H](n2cnc3c(N)nc(-c4ccccc4)nc32)[C@H](O)[C@@H]1O` [JI-C-2013-454], on P. aeruginosa PqsA, the IC50 stood at 25 µM and the inhibition at 10 µM turned out to be 42.7 ± 0.2%. In the case of `NCc1ccc(Nc2nc(N)c3ncn([C@@H]4O[C@H](COS(=O)(=O)NC(=O)c5ccccc5N)[C@@H](O)[C@H]4O)c3n2)cc1` [DST-Pqs29], the “% inhibition at 10 μM of P. aeruginosa PqsA” value on P. aeruginosa PqsA is given as 76.0 ± 1.3%. Consider `Nc1ccccc1C(=O)NS(=O)(=O)OC[C@H]1O[C@@H](n2cnc3c(NC4CC4)ncnc32)[C@H](O)[C@@H]1O` [DST-Pqs17], for which, on P. aeruginosa PqsA, the inhibition at 10 µM was 1.3 ± 3%. For the compound `CN(C)c1ncnc2c1ncn2[C@@H]1O[C@H](COS(=O)(=O)NC(=O)c2ccccc2N)[C@@H](O)[C@H]1O` [DST-Pqs18], on P. aeruginosa PqsA, the inhibition at 10 µM turned out to be 21.3 ± 1.9%. With `Nc1ncnc2c1ncn2[C@@H]1O[C@H](COS(=O)(=O)NC(=O)c2ccccc2O)[C@@H](O)[C@H]1O` [salicyl-AMS, Salicyl-AMS, reference compound], the “inhibition of quinolone production, in words” value in assay [1] was “less potent inhibitors of quinolone production”. In addition, the “PqsA inhibition, potency in words” value on P. aeruginosa PqsA is reported as “potency similar to that of the cognate anthranilyl inhibitors”. In the case of `CNc1ncnc2c1ncn2[C@@H]1O[C@H](COS(=O)(=O)NC(=O)c2ccccc2N)[C@@H](O)[C@H]1O` [DST-Pqs19], at P. aeruginosa PqsA, the IC50 was 39.2 µM and the inhibition at 10 µM amounted to 32.1 ± 2.8%.

For the compound `Nc1ncnc2c1ncn2[C@@H]1O[C@H](COS(=O)(=O)NC2(c3ccccc3)COC2)[C@@H](O)[C@H]1O` [DST-Pqs32], the inhibition at 10 µM at P. aeruginosa PqsA turned out to be 2.3 ± 0.9%.

For `Nc1ccccc1C(=O)NS(=O)(=O)OC[C@H]1O[C@@H](n2cnc3c(N)ncnc32)[C@H](N)[C@@H]1N` [JI-C-2013-189], on P. aeruginosa PqsA, the IC50 was 7.22 µM and the inhibition at 10 µM is 77.8 ± 0.2%. Consider `Nc1ncnc2c1ncn2[C@@H]1O[C@H](COS(=O)(=O)NC(=O)c2cccnc2Cl)[C@@H](O)[C@H]1O` [DST-Pqs8], for which the inhibition at 10 µM on P. aeruginosa PqsA worked out at 10.3 ± 5.3%. For `Nc1cc(Cl)ccc1C(=O)NS(=O)(=O)OC[C@H]1O[C@@H](n2cnc3c(N)ncnc32)[C@H](O)[C@@H]1O` [DST-Pqs14], on P. aeruginosa PqsA, the IC50 was found to be 0.828 µM. With `Nc1ncnc2c1ncn2[C@@H]1O[C@H](COS(=O)(=O)NC2(c3ccccc3F)COC2)[C@@H](O)[C@H]1O` [DST-Pqs30], the inhibition at 10 µM at P. aeruginosa PqsA was < 1%. Regarding `Nc1ccccc1C(=O)NS(=O)(=O)NC[C@H]1O[C@@H](n2cnc3c(N)ncnc32)[C@H](O)[C@@H]1O` [DST-Pqs2], on P. aeruginosa PqsA, the IC50 was determined as 0.213 µM and the inhibition at 10 µM is 100%. Regarding `Nc1cc(C(F)(F)F)ccc1C(=O)NS(=O)(=O)OC[C@H]1O[C@@H](n2cnc3c(N)ncnc32)[C@H](O)[C@@H]1O` [DST-Pqs10], on P. aeruginosa PqsA, the inhibition at 10 µM stood at 1.1 ± 2.6%.

As to `Nc1ccccc1C(=O)NS(=O)(=O)OC[C@H]1O[C@@H](n2cnc3c(N)ncnc32)[C@H](O)[C@@H]1O` [DST-Pqs1], on P. aeruginosa PqsA, the IC50 came to 0.309 µM and the inhibition at 10 µM worked out at 98.6 ± 2.3%.

As to `NCc1ccc(Nc2nc(N)c3ncn([C@@H]4O[C@H](COS(=O)(=O)NC(=O)c5ccccc5N)[C@@H](O)[C@H]4O)c3n2)cc1` [DST-Pqs28], the “% inhibition at 10 μM of P. aeruginosa PqsA” value on P. aeruginosa PqsA stood at 9.5 ± 3.9%. Consider `Nc1cccc(F)c1C(=O)NS(=O)(=O)OC[C@H]1O[C@@H](n2cnc3c(N)ncnc32)[C@H](O)[C@@H]1O` [DST-Pqs12], for which, on P. aeruginosa PqsA, the concentration for half-maximal inhibition (IC50) turned out to be 0.516 µM and the inhibition at 10 µM is 100%. With `Nc1cccc(Cl)c1C(=O)NS(=O)(=O)OC[C@H]1O[C@@H](n2cnc3c(N)ncnc32)[C@H](O)[C@@H]1O` [DST-Pqs16], at P. aeruginosa PqsA, the IC50 stood at 0.552 µM and the inhibition at 10 µM turned out to be 100%. For the compound `Nc1cc2ccccc2cc1C(=O)NS(=O)(=O)OC[C@H]1O[C@@H](n2cnc3c(N)ncnc32)[C@H](O)[C@@H]1O` [DST-Pqs9], the inhibition at 10 µM at P. aeruginosa PqsA was < 1%. On the same count and under the same terms, for `Nc1ncnc2c1ncn2[C@@H]1O[C@H](COS(=O)(=O)NC2(c3ccccc3O)COC2)[C@@H](O)[C@H]1O` [DST-Pqs31] the value was < 1%. With `Nc1ccccc1C(=O)NS(=O)(=O)OC[C@H]1O[C@@H](n2cnc3c(N)nc(Nc4ccccc4)nc32)[C@H](O)[C@@H]1O` [JI-C-2013-451], on P. aeruginosa PqsA, the IC50 came to 2.07 µM and the inhibition at 10 µM is 95.1 ± 0.2%. For the compound `NCc1ccccc1Nc1nc(N)c2ncn([C@@H]3O[C@H](COS(=O)(=O)NC(=O)c4ccccc4N)[C@@H](O)[C@H]3O)c2n1` [DST-Pqs27], on P. aeruginosa PqsA, the IC50 came out at 5.24 µM and the inhibition at 10 µM was 84.8 ± 1.5%. Take `Nc1ccccc1C(=O)NS(=O)(=O)OC[C@@H]1CC[C@H](n2cnc3c(N)ncnc32)O1` [JI-C-2014-025]: at P. aeruginosa PqsA, the IC50 was found to be 5 µM and the inhibition at 10 µM turned out to be 91.2 ± 0.9%. On the same counts, the results for `Nc1c(Cl)cccc1C(=O)NS(=O)(=O)OC[C@H]1O[C@@H](n2cnc3c(N)ncnc32)[C@H](O)[C@@H]1O` [DST-Pqs13] are 1.23 µM and 97.2 ± 1.2%. Consider `Nc1cc(F)ccc1C(=O)NS(=O)(=O)OC[C@H]1O[C@@H](n2cnc3c(N)ncnc32)[C@H](O)[C@@H]1O` [DST-Pqs11], for which, at P. aeruginosa PqsA, the IC50 stood at 0.107 µM and the inhibition at 10 µM was 100%. Turning to `Nc1ccccc1C1(NS(=O)(=O)OC[C@H]2O[C@@H](n3cnc4c(N)ncnc43)[C@H](O)[C@@H]2O)COC1` [DST-Pqs33], at P. aeruginosa PqsA, the inhibition at 10 µM amounted to 4.6 ± 2.9%. Regarding `Nc1ccccc1C(=O)NS(=O)(=O)OC[C@H]1O[C@@H](n2cnc3c(N)nc(C#Cc4ccccc4)nc32)[C@H](O)[C@@H]1O` [JI-C-2013-456], at P. aeruginosa PqsA, the IC50 was determined as 1.46 µM and the inhibition at 10 µM was 95.9 ± 0.4%. On the same counts, the results for `Nc1ccccc1C(=O)NS(=O)(=O)OC[C@H]1O[C@@H](n2cnc3c(N)ncnc32)C[C@@H]1O` [JI-C-2014-008] are 0.444 µM and 99.8 ± 0.2%.
